In patent US7091351B2, “Vanadium compounds for treating cancer” (Parker Hughes Institute, priority 1998, dated 2006):

Experiments:
Assay type in all cases: cell-based, human
[1] = test system: Ntera-2 testicular cancer cells; assay: MTT cytotoxicity assay of vanadocenes, NTERA-2 cells; settings: 24 h, 1.9-250 μM
How it was run: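 Cells seeded in triplicate, after 24 h exposed to two-fold serial dilutions of vanadocenes (1.9–250 μM; DMSO vehicle, 0.25% DMSO control) for 24 h. MTT added for 4 h at 37 °C, formazan dissolved in SDS/HCl overnight, OD read at 540 nm; IC50 values reported.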

[2] = test system: HS-SULTAN multiple myeloma cells; assay: MTT cytotoxicity assay of oxovanadium(IV) compounds, HS-SULTAN; settings: 48 hr
Experimental: (§1) The cytotoxicity of oxovanadium (W) complexes listed in Table 6 were tested against 9 different human cancer cell lines was performed using the MTT (3-[4,5-dimethylthiazol-2-yl]-2,5-diphenyl tetrazolium bromide) assay (Boehringer Mannheim Corp., Indianapolis, Ind.) as described previously (20). Briefly, exponentially growing tumor cells were seeded into a 96-well plate at a density of 4×10^4cells/well and incubated with medium containing the oxovanadium(IV) compounds concentrations ranging from 0.1 to 250 μM for 48 hours at 37° C. in a humidified 5% CO2 atmosphere. Triplicate wells were used for each treatment. To each well, 10 μl of MTT (0.5 mg/ml final concentration) was added and the plates were incubated at 37° C. for 4 hours to allow MTT to form formazan crystals by reacting with metabolically active cells . The formazan crystals were solubilized overnight at 37° C. in a solution containing 10% SDS in 0.01 M HCl. The absorbence of each well was measured in a microplate reader (Labsystems) at 540 nm and a reference wavelength of 690 nm. To translate the OD540 values into the number of live cells in each well, the OD540 values were compared to those on standard OD540—versus—cell number curves generated for each cell line. The percent survival was calculated using the formula: % survival=Live cell number[test]/Live cell number [control]×100. The IC50 values were calculated by non-linear regression analysis using an Graphpad Prism software version 2.0 (Graphpad Software, Inc., San Diego, Calif.).

[3] = test system: Tera-2 testicular cancer cells; assay: Cytotoxic activity of oxovanadium(IV) compounds, TERA-2; settings: read-out: Cytotoxic Activity TERA-2
Experimental: as §1

[4] = test system: PC3 prostate cancer cells; assay: Cytotoxic activity of oxovanadium(IV) compounds, PC3; settings: read-out: Cytotoxic Activity PC3
Experimental: as §1

U373 glioblastoma cells = assay: Cytotoxic activity of oxovanadium(IV) compounds, U373; settings: read-out: Cytotoxic Activity U373
Experimental: as §1

HL-60 cells = assay: MTT cytotoxicity assay of oxovanadium(IV) compounds, HL-60; settings: 48 hr
Experimental: as §1

[5] = test system: NTD1 testicular cancer cells; assay: Cytotoxic activity of oxovanadium(IV) compounds, NTD1; settings: read-out: Cytotoxic Activity NTD1
Experimental: as §1

[Cl-].[Cl-].[V+4].c1cc[cH-]c1.c1cc[cH-]c1 [VDC, VCp2Cl2]
IC50 [1]: 74 µM

bis(4,7-dimethyl-1,10-phenanthroline)sulfatooxovanadium(IV) [Compound 29]
IC50 [2]: 800 ± 50 nM | IC50 [3]: 19.5 µM | IC50 [4]: 1700 nM | IC50 (U373 glioblastoma cells): 1800 nM | IC50 (HL-60 cells): 980 ± 100 nM | IC50 [5]: 10.8 µM
